Like-named read-outs stand apart in the source and are kept apart here.
System: PGE2 formation in normal human epidermal keratinocytes (NHEK)
Test: Inhibition of PGE2 formation in irritated keratinocyte cultures (PGE2 immunoassay)
Type: cell-based
Settings: 24 h; for inhibition at 50 µM: Homo sapiens, NHEK, read-out: relative inhibition in % of PGE2 formation in keratinocyte cultures at 50 μM; for relative inhibition in % of PGE2 formation in keratinocyte cultures at μM: column head prints only 'μM' (method: 50 μM or 10 μM), calcimycin 2.5 μM
Description: A confluent culture was trypsinated and adjusted to a density of 5×10^4 cells/ml. The cells were then seeded in the same medium but with only 1% fetal calf serum in 24 well plates and cultivated for a period of 48 h. A model irritating agent was then applied to the cells by adding calcimycin to a final level of 2.5 μM. The individual compounds, as listed below, dissolved in DMSO were added simultaneously. The final concentration of the compounds was 50 μM or 10 μM, the final DMSO concentration was adjusted to 1% (v/v). Parallel treatments received no calcimycin (non-irritated control) or calcimycin without compounds according to the present invention (irritated control). The DMSO concentration was adjusted to 1% in all these control treatments. […] The prostaglandin levels in treated cell cultures were compared to the irritated and non-irritated control cultures in order to determine the relative inhibition of PGE2 formation.

[1] = 50 μM compound, irritated with calcimycin 2.5 μM, 1% DMSO

Row | SMILES | inhibition at 50 µM [1] [%] | relative inhibition in % of PGE2 formation in keratinocyte cultures at μM (1% DMSO) [%] | inhibition at 50 µM [%]
1 | N#CC(=C1CCCC1)c1ccccc1 [2-Cyclopentylidene-2-phenylacetonitrile] | 80.8 | 71.1 | 
2 | CCC(CC)=C(C#N)c1ccccc1 [3-Ethyl-2-phenylpent-2-enenitrile] | 73.2 | 63.9 | 
3 | CCCCCCCC1CCCC1=O (stereo not drawn) [ALISMONE ™, 2-heptylcyclopentanone] | 92.4 | 47 | 
4 | CCC(C)C(=O)OCCc1ccccc1 (stereo not drawn) [ANATOLYL ™, phenethyl 2-methylbutanoate] | 50.5 |  | 
5 | CC=Cc1ccc(OC)cc1 [ANETHOLE, 1-methoxy-4-(prop-1-enyl)benzene] | 51 |  | 
6 | CCCCCOC(=O)c1ccccc1O [Amyl salicylate, pentyl 2-hydroxybenzoate] | 89.8 | 73.5 | 
7 | CC(C)(C)c1ccc(CCC=O)cc1 [BOURGEONAL ™, 3-(4-tert-butylphenyl)propanal] | 65 |  | 
8 | CC(C)(C)C(=O)OCCc1ccccc1 [CENTIFOLYL ™, phenethyl pivalate] | 39 |  | 
9 | CC(C=O)Cc1ccc(C(C)C)cc1 (stereo not drawn) [CYCLAMEN ALDEHYDE ™, 2-Methyl-3-(4-isopropylphenyl)propanal] | 82 | 32 | 
10 | CC(=O)OCC=Cc1ccccc1 [Cinnamyl acetate] | 47.8 |  | 
11 | O=C(C=Cc1ccccc1)OCC=Cc1ccccc1 [Cinnamyl cinnamate] | 64 |  | 
12 | O=C(OC1CCCCC1)c1ccccc1O [Cyclohexyl salicylate, cyclohexyl 2-hydroxybenzoate] | 97.4 | 76.6 | 
13 | CC(C)COC(=O)c1ccccc1 [Isobutyl benzoate] | 52.5 |  | 
14 | CC(C)COC(=O)c1ccccc1O [Isobutyl salicylate, isobutyl 2-hydroxybenzoate] | 69.1 | 73.1 | 
15 | CCOc1cc(COC)ccc1O [METHYL DIANTILIS ®, 2-Ethoxy-4-(methoxymethyl)phenol] |  | 88.2 | 
16 | CCOc1ccc2ccccc2c1 [NEROLINE ™ CRIST, 2-ethoxynaphthalene] | 83 | 50.2 | 
17 | N#CC(=C1CCCCC1)c1ccccc1 [PEONILE ®, 2-cyclohexylidene-2-phenylacetonitrile] | 93.3 | 92.4 | 
18 | CCOc1cc(COC(C)C)ccc1O [PROPYL DIANTILIS, 2-Ethoxy-4-(isopropoxymethyl)phenol] |  | 95.1 | 90.9
19 | O=C(OCCc1ccccc1)c1ccccc1 [Phenethyl benzoate] | 92.4 | 56.9 | 
20 | O=C(C=Cc1ccccc1)OCCc1ccccc1 [Phenethyl cinnamate] | 91.7 | 93.6 | 
21 | CC(C)C(=O)OCCc1ccccc1 [Phenethyl isobutyrate] | 44.8 |  | 
22 | O=C(OCCc1ccccc1)c1ccccc1O [Phenethyl salicylate] | 50.9 |  | 
23 | CC(C)Cc1ccc(CC(C)C=O)cc1 (stereo not drawn) [SILVIAL ®, 2-Methyl-3-(4-(2-methylpropyl)phenyl)propanal] | 62.7 |  | 
24 | CC=C(C)C(=O)OCc1ccccc1 [TIGLATE BENZYLE, benzyl 2-methylbut-2-enoate] | 72.4 | 50.2 | 
25 | COc1ccc(CC2CC2)cc1 [TOSCANOL ®, 1-(cyclopropylmethyl)-4-methoxybenzene] | 56.7 |  | 
26 | CC/C=C\CCOC(=O)c1ccccc1O [cis-3-Hexen-1-yl salicylate] | 94.8 | 81.4 | 
27 | CCCCCCOC(=O)c1ccccc1O [n-Hexyl salicylate] | 82.9 | 91.6 | 

Reference: patent US9440097B2, “Organic compounds” (Givaudan SA, priority 2005, dated 2016)
